Source: ChEMBL document CHEMBL5338769, “Discovery of Norisoboldine Analogue III11 as a Novel and Potent Aryl Hydrocarbon Receptor Agonist for the Treatment of Ulcerative Colitis” (J Med Chem, 2023)
Calls of active or inactive are those of the source. No cut-off for these calls is given here.

Experiments:
EL4 = assay: Cytotoxicity against mouse EL4 cells assessed as inhibition of cell proliferation incubated for 72 hrs by MTT assay; format: functional, cell-based; conditions: EL4, 72 h
[1] = molecular target: T1, Aryl hydrocarbon receptor (Mus musculus, UniProt P30561); assay: Activation of AhR transcription in C57BL/6 mouse naive T cells assessed as increase in CYP1B1 mRNA expression at 1 to 3 uM by qRT-PCR analysis; format: cell-based; conditions: t cell, dose 1-3 µM
T1 sequence (P30561 whole entry): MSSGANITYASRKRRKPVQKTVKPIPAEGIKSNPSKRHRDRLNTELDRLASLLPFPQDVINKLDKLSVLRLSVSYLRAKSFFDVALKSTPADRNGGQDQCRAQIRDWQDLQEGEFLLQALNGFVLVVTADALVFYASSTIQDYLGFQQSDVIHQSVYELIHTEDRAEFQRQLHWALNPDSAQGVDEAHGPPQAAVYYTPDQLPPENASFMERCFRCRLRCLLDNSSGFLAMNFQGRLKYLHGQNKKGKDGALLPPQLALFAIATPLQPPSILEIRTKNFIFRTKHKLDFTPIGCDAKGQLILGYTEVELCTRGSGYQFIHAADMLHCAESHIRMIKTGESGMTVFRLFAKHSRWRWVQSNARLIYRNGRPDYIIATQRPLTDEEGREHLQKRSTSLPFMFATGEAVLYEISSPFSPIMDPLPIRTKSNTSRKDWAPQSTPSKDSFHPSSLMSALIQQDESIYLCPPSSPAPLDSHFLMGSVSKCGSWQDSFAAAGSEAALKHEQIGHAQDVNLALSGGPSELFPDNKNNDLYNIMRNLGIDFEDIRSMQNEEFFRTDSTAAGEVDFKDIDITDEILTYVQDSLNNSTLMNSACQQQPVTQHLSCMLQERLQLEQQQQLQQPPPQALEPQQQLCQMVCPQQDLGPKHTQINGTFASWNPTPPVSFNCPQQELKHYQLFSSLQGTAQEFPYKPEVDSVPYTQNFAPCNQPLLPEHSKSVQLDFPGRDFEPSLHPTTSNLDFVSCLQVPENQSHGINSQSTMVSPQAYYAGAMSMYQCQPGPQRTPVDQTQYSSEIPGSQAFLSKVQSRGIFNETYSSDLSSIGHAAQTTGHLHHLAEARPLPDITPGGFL

[2] = molecular target: T1, Aryl hydrocarbon receptor; assay: Activation of AhR transcription in C57BL/6 mouse naive T cells assessed as increase in UGT1A1 mRNA expression at 1 to 3 uM by qRT-PCR analysis; format: cell-based; conditions: t cell, dose 1-3 µM
[3] = Unbound drug concentration in rat plasma at 10.74 ug/ml of total concentration measured after 12 hrs by ultrafiltration based HPLC analysis; format: ADME, cell-free; conditions: dose 10.74 µg/ml
[4] = Protein binding in rat plasma at 20.13 ug/ml of total concentration measured after 12 hrs by ultrafiltration based HPLC analysis; format: ADME, cell-free; conditions: at 20.13 µg/mL, read-out: PPB
[5] = Protein binding in rat plasma at 48.02 ug/ml of total concentration measured after 12 hrs by ultrafiltration based HPLC analysis; format: ADME, cell-free; conditions: at 48.02 µg/mL, read-out: PPB (converted)
[6] = Induction of cell differentiation in C57BL/6 mouse naive regulatory T cells assessed as increase in […] mRNA level by measuring fold change at 3 uM incubated for 72 hrs by qRT-PCR analysis; format: functional
[7] = Induction of cell differentiation in C57BL/6 mouse naive regulatory T cells assessed as increase in IL-10 mRNA level by measuring fold change at 3 uM incubated for 72 hrs by qRT-PCR analysis; format: functional
[8] = Half-life in Sprague-Dawley rat at 3 mg/kg, iv measured upto 1440 min by LC-MS/MS analysis; format: ADME, organism-based; conditions: in vivo
[9] = AUC(0 to infinity) in Sprague-Dawley rat at 3 mg/kg, iv measured upto 1440 min by LC-MS/MS analysis; format: ADME, organism-based; set-up: dose 3 mg/kg, time < 1440 min, route iv; conditions: in vivo
[10] = MRT in Sprague-Dawley rat at 3 mg/kg, iv measured upto 1440 min by LC-MS/MS analysis; format: ADME, organism-based; conditions: in vivo
[11] = Half-life in Sprague-Dawley rat at 30 mg/kg, po measured upto 1440 min by LC-MS/MS analysis; format: ADME, organism-based; conditions: in vivo
[12] = Cmax in Sprague-Dawley rat at 30 mg/kg, po measured at 120 min by LC-MS/MS analysis; format: ADME, organism-based; set-up: dose 30 mg/kg, time 120 min, route po; conditions: in vivo
Mus musculus [13] = assay: Anti-colitis activity against DSS-induced ulcerative colitis C57BL/6 mouse model assessed as decrease in colon MPO activity at 10 to 20 mg/kg, po administered once a day for 10 days; format: functional, organism-based; conditions: dose 10-20 mg/kg, time 10.0 day
Mus musculus [14] = assay: Anti-colitis activity against DSS-induced ulcerative colitis C57BL/6 mouse model assessed as amelioration of mucosal architecture score by measuring ulceration in colon at 10 to 20 mg/kg, po administered once a day for 10 days by H&E staining based histopathological analysis; format: functional, organism-based; conditions: dose 10-20 mg/kg, time 10.0 day
Mus musculus [15] = assay: Anti-colitis activity against DSS-induced ulcerative colitis C57BL/6 mouse model assessed as amelioration of mucosal architecture score by measuring granulation in colon at 10 to 20 mg/kg, po administered once a day for 10 days by H&E staining based histopathological analysis; format: functional, organism-based; conditions: dose 10-20 mg/kg, time 10.0 day
Mus musculus [16] = assay: Anti-colitis activity against DSS-induced ulcerative colitis C57BL/6 mouse model assessed as amelioration of epithelial change score by measuring erosion in colon at 10 to 20 mg/kg, po administered once a day for 10 days by H&E staining based histopathological analysis; format: functional, organism-based; conditions: dose 10-20 mg/kg, time 10.0 day
Mus musculus [17] = assay: Anti-colitis activity against DSS-induced ulcerative colitis C57BL/6 mouse model assessed as amelioration of epithelial change score by measuring crypt abscesses in colon at 10 to 20 mg/kg, po administered once a day for 10 days by H&E staining based histopathological analysis; format: functional, organism-based; conditions: dose 10-20 mg/kg, time 10.0 day
Mus musculus [18] = assay: Anti-colitis activity against DSS-induced ulcerative colitis C57BL/6 mouse model assessed as amelioration of epithelial change score by measuring loss of goblet cells in colon at 10 to 20 mg/kg, po administered once a day for 10 days by H&E staining based histopathological analysis; format: functional, organism-based; conditions: dose 10-20 mg/kg, time 10.0 day
Mus musculus [19] = assay: Anti-colitis activity against DSS-induced ulcerative colitis C57BL/6 mouse model assessed as amelioration of inflammation severity in colon at 10 to 20 mg/kg, po administered once a day for 10 days by H&E staining based histopathological analysis; format: functional, organism-based; conditions: dose 10-20 mg/kg, time 10.0 day
Mus musculus [20] = assay: In vivo activation of AhR in C57BL/6 mouse assessed as increase in CYP1A1 mRNA expression at 10 to 20 mg/kg, po administered once a day for 10 days by qRT-PCR analysis; format: functional, organism-based; conditions: dose 10-20 mg/kg, time 10.0 day
Mus musculus [21] = assay: Anti-colitis activity in DSS-induced ulcerative colitis C57BL/6 mouse model assessed as increase in CD4+CD25+Foxp3+ Treg cell ratio in mesenteric lymph nodes at 10 mg/kg, po administered once a day for 10 days by flow cytometric analysis (reference value: 4.5 %); format: functional; conditions: time 10 day
Mus musculus [22] = assay: Anti-colitis activity in DSS-induced ulcerative colitis C57BL/6 mouse model assessed as increase in CD4+CD25+Foxp3+ Treg cell ratio in mesenteric lymph nodes at 20 mg/kg, po administered once a day for 10 days by flow cytometric analysis (reference value: 4.5 %); format: functional; conditions: time 10 day

## COc1cc2c3c(c1)-c1ccc(O)cc1CC3NCC2 (stereo not drawn)
EL4
  IC50: 28 µM
[1]
  Activity: Active
[2]
  Activity: Active
[3]
  Cp(f): 1440 ng/mL
[4]
  fraction unbound at 12 h, 20.13 ug/ml: 0.498
[5]
  fraction unbound at 12 h, 48.02 ug/ml: 0.139
[6]
  fold change (FC): 1.4
[7]
  fold change (FC): 2.4
[8]
  half-life: 2.24 h
[9]
  AUC(0-inf): 974 ng·h/mL
[10]
  MRT: 3.07 h
[11]
  half-life: 2.69 h
[12]
  Cmax: 789 ng/mL
Mus musculus [13]
  Activity: Active
Mus musculus [14]
  Activity: Active
Mus musculus [15]
  Activity: Active
Mus musculus [16]
  Activity: Active
Mus musculus [17]
  Activity: Active
Mus musculus [18]
  Activity: Active
Mus musculus [19]
  Activity: Active
Mus musculus [20]
  Activity: Active
Mus musculus [21]
  Activity: 7.4%
Mus musculus [22]
  Activity: 8.5%
